For 28 compounds, inhibition results are on record in patent US9040565B2, “1H-benzimidazole-5-carboxamides as anti-inflammatory agents” (Orexo AB, priority 2008, dated 2015).

This assay concerns the target T1, recombinant human mPGES-1 (Homo sapiens, UniProt O14684).
T1 construct: made in house; host or cells: Rosetta E. coli (microsomal/membrane fraction)
T1 sequence (O14684 1-152): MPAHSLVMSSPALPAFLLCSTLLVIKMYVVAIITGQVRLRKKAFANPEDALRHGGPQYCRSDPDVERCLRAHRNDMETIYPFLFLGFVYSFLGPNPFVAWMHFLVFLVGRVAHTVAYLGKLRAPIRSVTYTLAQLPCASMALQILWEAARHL
The assay is described as follows: mPGES-1 inhibition, HTRF detection of PGE2 (Biological Test). It counts as biochemical. How it is done:
Microsomes from Rosetta E. coli bacteria expressing recombinant human mPGES-1 is dissolved in 0.1 M KPi pH 7.4 buffer containing 2.5 mM GSH. 50 μl of the enzyme is subsequently dispensed in a 384-well plate. 0.5 μl of the inhibitor dissolved in DMSO at is thereafter added to each well and incubated for 25 minutes at room temperature.
Subsequently, 2 μl of PGH2 dissolved in an appropriate solvent is added to each well and after one minute the acidified stop solution containing FeCl2 is added. 4 μl of the total volume is transferred to a separate plate and diluted 750-fold in two separate steps before HTRF detection of PGE2.
The HTRf detection is performed by the use of a commercially available kit from CisBio essentially according to the manufacturer's protocol. Briefly, 10 μl of the diluted sample is transferred to a white 384-well plate. 5 μl of d2 and 5 μl Eu3+-Cryptate labeled anti-PGE2 is added to each well containing samples by the use of a Multidrop. The plate is covered with a plastic self-adhesive film, centrifuged at 1200 rpm for 1 minute and subsequently stored at +4° C. over night.
After over night incubation the fluorescence is measured by the use of an appropriate microplate reader. The fluorescence of europium cryptate, and d2 are measured using the following excitation and emission wavelength, europium cryptate: λmax^ex=307 nm, λmax^em=620 nm and d2: λmax^ex=620 nm, λmax^em=665 nm), respectively. The extent of the specific FRET is measured as a ratio of the emission intensity at 665 nm vs. that at 620 nm. A standard curve using synthetic PGE2 is used to quantify the amount of PGE2 in unknown samples.

As usually defined, the inhibition is the change of the read-out against control, counted positive when it falls. With `CCOc1cc2[nH]c(Nc3c(Cl)cncc3Cl)nc2cc1C(=O)Nc1cc(C(F)(F)F)ccn1` [Example 694, 2-(3,5-Dichloropyridin-4-ylamino)-N-(4-trifluoromethyl-pyridin-2-yl)-6-ethoxy-1H-benzimidazole-6-carboxamide], the inhibition at 10 µM was 98%. Take `O=C(N[C@H]1CC[C@H](C(F)(F)F)CC1)c1cc2nc(Nc3c(Cl)cncc3Cl)[nH]c2cc1OC(F)F` [Example 701, 2-(3,5-Dichloropyridin-4-ylamino)-N-(trans-4-trifluoromethyl-cyclohex-1-yl)-6-difluoromethoxy-1H-benzimidazole-5-carboxamide]: the inhibition at 10 µM was determined as 100%. With `O=C(Nc1ccc(F)c(C(F)F)n1)c1cc2nc(Nc3c(Cl)cncc3Cl)[nH]c2cc1OCC(F)(F)F` [Example 707, 2-(3,5-Dichloropyridin-4-ylamino)-N-(6-difluoromethyl-5-fluoro-pyridin-2-yl)-6-(2,2,2-trifluoroethoxy)-1H-benzimidazole-6-carboxamide] the figure was 100%. As to `CCOc1cc2[nH]c(Nc3c(Cl)cncc3Cl)nc2cc1C(=O)NCC(F)(F)C(F)(F)C(F)(F)C(F)(F)F` [Example 691, 2-(3,5-Dichloropyridin-4-ylamino)-N-(2,2,3,3,4,4,5,5,5-nonafluoropentyl)-6-ethoxy-1H-benzimidazole-5-carboxamide], the inhibition at 10 µM was 97%. Take `Cn1c(Nc2c(Cl)cncc2Cl)nc2cc(C(=O)Nc3ccc(Br)cc3)c(OCCN3CCCC3=O)cc21` [Example 664, 2-(3,5-Dichloropyridin-4-ylamino)-N-(4-bromophenyl)-6-(2-(pyrrolidin-2-on-1-yl)-ethoxy)-1-methyl-1H-benzimidazole-5-carboxamide]: the inhibition at 10 µM is 99%. With `CN1CCC(Oc2cc3c(cc2C(=O)Nc2ccc(Br)cc2)nc(Nc2c(Cl)cncc2Cl)n3C)C1` (stereo not shown) [Example 662, 2-(3,5-Dichloropyridin-4-ylamino)-N-(4-bromophenyl)-6-(N-methyl-pyrrolidin-3-yl-oxy)-1-methyl-1H-benzimidazole-5-carboxamide] the figure was 99%.

For `CCOc1cc2c(cc1C(=O)NC1CCC(C)(C)CC1)nc(Nc1c(Cl)cncc1Cl)n2C` [Example 670, 2-(3,5-Dichloropyridin-4-ylamino)-N-(4,4-dimethyl-cyclohexyl)-6-ethoxy-1-methyl-1H-benzimidazole-5-carboxamide], the inhibition at 10 µM worked out at 100%.

Turning to `CCOc1cc2[nH]c(Nc3c(Cl)cncc3Cl)nc2cc1C(=O)Nc1cc(C(F)(F)F)cc(N(C)C)n1` [Example 697], the inhibition at 10 µM came out at 100%. Regarding `O=C(N[C@H]1CC[C@H](C(F)(F)F)CC1)c1cc2nc(Nc3c(Cl)cncc3Cl)[nH]c2cc1OCCF` [Example 677, 2-(3,5-Dichloropyridin-4-ylamino)-N-(trans-4-trifluoromethyl-cyclohex-1-yl)-6-(2-fluoroethoxy)-1H-benzimidazole-5-carboxamide], the inhibition at 10 µM is 100%. Take `O=C(NCC(F)(F)C(F)(F)C(F)(F)C(F)(F)F)c1cc2nc(Nc3ncc(Cl)cc3Cl)[nH]c2cc1OC(F)F` [Example 700, 2-(3,5-Dichloro-pyridin-2-yl-amino)-N-(2,2,3,3,4,4,5,5,5-nonafluoro-pentyl)-6-(difluoromethoxy)-1H-benzimidazole-5-carboxamide]: the inhibition at 10 µM was determined as 98%.

As for `Cn1c(Nc2c(Cl)cncc2Cl)nc2cc(C(=O)Nc3ccc(Br)cc3)ccc21` [Example 410, N-(4-Bromophenyl)-2-(3,5-dichloropyridin-4-ylamino)-1-methyl-1H-benzimidazole-5-carboxamide], the inhibition at 10 µM was 100%. With `Cn1c(Nc2c(Cl)cncc2Cl)nc2cc(C(=O)NCc3ncccc3C(F)(F)F)ccc21` [Example 553, 2-(3,5-Dichloropyridin-4-ylamino)-1-methyl-N-((3-trifluoromethyl-pyridin-2-yl)methyl)-1H-benzimidazole-5-carboxamide] the figure was 53%; with `O=C(Nc1ccc(Br)cc1)c1cc2nc(Nc3c(Cl)cncc3Cl)[nH]c2cc1OCC(F)(F)F` [Example 676, 2-(3,5-Dichloropyridin-4-ylamino)-N-(4-bromophenyl)-6-(2,2,2-trifluoroethoxy)-1H-benzimidazole-5-carboxamide], 100%.

Take `O=C(Nc1cc(C(F)(F)F)ccn1)c1cc2nc(Nc3c(Cl)cncc3Cl)[nH]c2cc1OC(F)F` [Example 702]: the inhibition at 10 µM came to 95%. With `COCCOc1cc2c(cc1C(=O)Nc1ccc(Br)cc1)nc(Nc1c(Cl)cncc1Cl)n2C` [Example 666, 2-(3,5-Dichloropyridin-4-ylamino)-N-(4-bromophenyl)-6-(2-methoxy-ethoxy)-1-methyl-1H-benzimidazole-5-carboxamide] the figure was 100%. With `COc1cc2[nH]c(Nc3c(Cl)cncc3Cl)nc2cc1C(=O)Nc1cccc(N(C)C)n1` [Example 696, 2-(3,5-Dichloropyridin-4-ylamino)-N-(6-dimethylamino-pyridin-2-yl)-6-methoxy-1H-benzimidazole-5-carboxamide] the figure was 100%; with `COCCOc1cc2[nH]c(Nc3c(Cl)cncc3Cl)nc2cc1C(=O)Nc1ccc(Br)cc1` [Example 685, 2-(3,5-Dichloro-pyridin-4-ylamino)-6-(2-methoxy-ethoxy)-N-(4-bromo-phenyl)-1H-benzimidazole-5-carboxamide], 98%. Regarding `COCCOc1cc2[nH]c(Nc3c(Cl)cncc3Cl)nc2cc1C(=O)NCc1ncccc1C(F)(F)F` [Example 686, 2-(3,5-Dichloro-pyridin-4-ylamino)-N-((3-trifluoromethyl-pyridin-2-yl)-methyl)-6-(2-methoxy-ethoxy)-1H-benzimidazole-5-carboxamide], the inhibition at 10 µM worked out at 99%. With `CCCOc1cc2c(cc1C(=O)Nc1ccc(Br)cc1)nc(Nc1c(Cl)cncc1Cl)n2C` [Example 660, 2-(3,5-Dichloropyridin-4-ylamino)-N-(4-bromophenyl)-6-propoxy-1-methyl-1H-benzimidazole-5-carboxamide] the figure was 99%; with `O=C(NCc1ncccc1C(F)F)c1cc2nc(Nc3c(Cl)cncc3Cl)[nH]c2cc1OCC(F)(F)F` [Example 711, 2-(3,5-Dichloropyridin-4-ylamino)-N-((3-difluoromethyl-pyridin-2-yl)-methyl)-6-(2,2,2-trifluoro-ethoxy)-1H-benzimidazole-5-carboxamide], 98%. Take `Cc1ccnc(Cl)c1Nc1nc2ccc(C(=O)NC3CCC(C)(C)CC3)cc2[nH]1` [Example 531, 2-(2-Chloro-4-methylpyridin-3-ylamino)-N-(4,4-dimethylcyclohexyl)-1H-benzimidazole-5-carboxamide]: the inhibition at 10 µM is 93%. Consider `CCOc1cc2[nH]c(Nc3c(Cl)cncc3Cl)nc2cc1C(=O)NC1CCC(C)(C)CC1` [Example 669, 2-(3,5-Dichloropyridin-4-ylamino)-N-(4,4-dimethyl-cyclohexyl)-6-ethoxy-1H-benzimidazole-5-carboxamide], for which the inhibition at 10 µM came to 100%. Consider `O=C(Nc1cccc(Cl)c1)c1ccc2nc(Nc3c(Cl)cncc3Cl)[nH]c2c1` [Example 434, N-(3-Chlorophenyl)-2-(3,5-dichloropyridin-4-ylamino)-1H-benzimidazole-5-carboxamide], for which the inhibition at 10 µM came out at 98%. With `O=C(N[C@H]1CC[C@H](C(F)(F)F)CC1)c1cc2nc(Nc3c(Cl)cncc3Cl)[nH]c2cc1OCC(F)(F)F` [Example 675, 2-(3,5-Dichloro-pyridin-4-yl-amino)-6-(2,2,2-trifluoro-ethoxy)-N-(trans-4-trifluoromethyl-cyclohex-1-yl)-1H-benzimidazole-5-carboxamide] the figure was 100%; with `O=C(Nc1ccc(Br)cc1)c1ccc2nc(Nc3c(Cl)cncc3Cl)[nH]c2c1` [Example 388, N-(4-Bromophenyl)-2-(3,5-dichloropyridin-4-ylamino)-1H-benzimidazole-5-carboxamide], 100%; with `COc1cc2c(cc1C(=O)Nc1ccc(Br)cc1)nc(Nc1c(Cl)cncc1Cl)n2C` [Example 679, 2-(3,5-Dichloro-pyridin-4-ylamino)-6-methoxy-N-(4-bromophenyl)-1-methyl-1H-benzimidazole-5-carboxamide], 100%.

On to `COc1cc2[nH]c(Nc3c(Cl)cncc3Cl)nc2cc1C(=O)Nc1cc(C(F)(F)F)cc(C)n1` [Example 681, 2-(3,5-Dichloro-pyridin-4-ylamino)-6-methoxy-N-(6-methyl-4-trifluoromethyl-pyridin-2-yl)-1H-benzimidazole-5-carboxamide], for which the inhibition at 10 µM worked out at 100%.

`CC1(C)CCC(NC(=O)c2ccc3nc(Nc4c(Cl)cncc4Cl)[nH]c3c2)CC1` [Example 409, 2-(3,5-Dichloropyridin-4-ylamino)-N-(4,4-dimethylcyclohexyl)-1H-benzimidazole-6-carboxamide]: the inhibition at 10 µM is 100%.
